PubChem BioAssay (NCI)
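Cells were grown in 96-well plates and exposed to each compound for 48 hours at five concentrations; endpoints were interpolated linearly between bracketing concentrations, or set to the highest concentration if not reached. Abbreviation: GI50, concentration required for 50% inhibition of growth. TGI marks complete inhibition of growth.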

Key:
Assay in all cases: NCI anticancer screen, dose series, 48 h
HOP-92 NSCLC = test system: HOP-92 NSCLC
RXF 393 renal = test system: RXF 393 renal
SR leukemia = test system: SR leukemia
HCC-2998 colon = test system: HCC-2998 colon
SF-539 CNS = test system: SF-539 CNS
SK-MEL-5 melanoma = test system: SK-MEL-5 melanoma
HL-60(TB) leukemia = test system: HL-60(TB) leukemia
MDA-MB-231 breast = test system: MDA-MB-231 breast
CAKI-1 renal = test system: CAKI-1 renal
COLO 205 colon = test system: COLO 205 colon
SNB-75 CNS = test system: SNB-75 CNS
SK-MEL-28 melanoma = test system: SK-MEL-28 melanoma
HCT-15 colon = test system: HCT-15 colon
SF-268 CNS = test system: SF-268 CNS
SK-MEL-2 melanoma = test system: SK-MEL-2 melanoma
IGROV1 ovarian = test system: IGROV1 ovarian
T-47D breast = test system: T-47D breast
A498 renal = test system: A498 renal
MDA-MB-435 = test system: MDA-MB-435
CCRF-CEM leukemia = test system: CCRF-CEM leukemia
UO-31 renal = test system: UO-31 renal
HCT-116 colon = test system: HCT-116 colon
SK-OV-3 ovarian = test system: SK-OV-3 ovarian
786-0 renal = test system: 786-0 renal
OVCAR-3 ovarian = test system: OVCAR-3 ovarian
U251 CNS = test system: U251 CNS
SN12C renal = test system: SN12C renal
BT-549 breast = test system: BT-549 breast
ACHN renal = test system: ACHN renal
DU-145 prostate = test system: DU-145 prostate
SNB-19 CNS = test system: SNB-19 CNS
M14 melanoma = test system: M14 melanoma
OVCAR-5 ovarian = test system: OVCAR-5 ovarian
OVCAR-8 ovarian = test system: OVCAR-8 ovarian
NCI-H522 lung = test system: NCI-H522 lung
LOX IMVI melanoma = test system: LOX IMVI melanoma
SW-620 colon = test system: SW-620 colon
NCI-H226 lung = test system: NCI-H226 lung
HOP-62 NSCLC = test system: HOP-62 NSCLC
OVCAR-4 ovarian = test system: OVCAR-4 ovarian
UACC-257 melanoma = test system: UACC-257 melanoma
UACC-62 melanoma = test system: UACC-62 melanoma
SF-295 CNS = test system: SF-295 CNS
KM12 colon = test system: KM12 colon
HT29 colon = test system: HT29 colon
NCI-H460 lung = test system: NCI-H460 lung
A549 NSCLC = test system: A549 NSCLC
NCI-H23 lung = test system: NCI-H23 lung
MALME-3M melanoma = test system: MALME-3M melanoma
K-562 leukemia = test system: K-562 leukemia
MOLT-4 leukemia = test system: MOLT-4 leukemia
TK-10 renal = test system: TK-10 renal
HS 578T breast = test system: HS 578T breast
NCI/ADR-RES ovarian = test system: NCI/ADR-RES ovarian
MCF7 breast = test system: MCF7 breast
PC-3 prostate = test system: PC-3 prostate
RPMI-8226 leukemia = test system: RPMI-8226 leukemia

With `O=C1NC(=O)/C(=C/c2ccc3ncccc3c2)S1` the GI50 (HOP-92 NSCLC) was 0.749 µM, the TGI (HOP-92 NSCLC) was greater than 22.8 µM and the GI50 (RXF 393 renal) was greater than 23.2 µM. For the same compound, the TGI (RXF 393 renal) was greater than 25 µM, the GI50 (SR leukemia) was greater than 25 µM and the TGI (SR leukemia) was greater than 25 µM. For the same compound, the GI50 (HCC-2998 colon) was greater than 25 µM, the TGI (HCC-2998 colon) was greater than 25 µM and the GI50 (SF-539 CNS) was greater than 25 µM. The TGI (SF-539 CNS) was greater than 25 µM, the GI50 (SK-MEL-5 melanoma) was greater than 25 µM and the TGI (SK-MEL-5 melanoma) was greater than 25 µM. It also gave a GI50 (HL-60(TB) leukemia) of 8.14 µM, a TGI (HL-60(TB) leukemia) greater than 25 µM and a GI50 (MDA-MB-231 breast) greater than 25 µM. The TGI (MDA-MB-231 breast) was greater than 25 µM, the GI50 (CAKI-1 renal) was greater than 25 µM and the TGI (CAKI-1 renal) was greater than 25 µM. The GI50 (COLO 205 colon) was greater than 25 µM, the TGI (COLO 205 colon) was greater than 25 µM and the GI50 (SNB-75 CNS) was 1.4 µM. For the same compound, the TGI (SNB-75 CNS) was greater than 25 µM, the GI50 (SK-MEL-28 melanoma) was 17.2 µM and the TGI (SK-MEL-28 melanoma) was greater than 25 µM. It also gave a GI50 (HCT-15 colon) greater than 21.1 µM, a TGI (HCT-15 colon) greater than 25 µM and a GI50 (SF-268 CNS) greater than 25 µM. The TGI (SF-268 CNS) was greater than 25 µM, the GI50 (SK-MEL-2 melanoma) was greater than 25 µM and the TGI (SK-MEL-2 melanoma) was greater than 25 µM. It also gave a GI50 (IGROV1 ovarian) greater than 6.1 µM, a TGI (IGROV1 ovarian) greater than 21.7 µM and a GI50 (T-47D breast) of 1.23 µM. The TGI (T-47D breast) was greater than 22.6 µM, the GI50 (A498 renal) was 0.307 µM and the TGI (A498 renal) was 2.2 µM. The GI50 (MDA-MB-435) was greater than 25 µM, the TGI (MDA-MB-435) was greater than 25 µM and the GI50 (CCRF-CEM leukemia) was greater than 25 µM. For the same compound, the TGI (CCRF-CEM leukemia) was greater than 25 µM, the GI50 (UO-31 renal) was 3.51 µM and the TGI (UO-31 renal) was greater than 25 µM. It also gave a GI50 (HCT-116 colon) greater than 25 µM, a TGI (HCT-116 colon) greater than 25 µM and a GI50 (SK-OV-3 ovarian) of 6.08 µM. For the same compound, the TGI (SK-OV-3 ovarian) was greater than 25 µM, the GI50 (786-0 renal) was greater than 25 µM and the TGI (786-0 renal) was greater than 25 µM. For the same compound, the GI50 (OVCAR-3 ovarian) was greater than 25 µM, the TGI (OVCAR-3 ovarian) was greater than 25 µM and the GI50 (U251 CNS) was greater than 25 µM. It also gave a TGI (U251 CNS) greater than 25 µM, a GI50 (SN12C renal) greater than 25 µM and a TGI (SN12C renal) greater than 25 µM. The GI50 (BT-549 breast) was greater than 25 µM, the TGI (BT-549 breast) was greater than 25 µM and the GI50 (ACHN renal) was greater than 25 µM. It also gave a TGI (ACHN renal) greater than 25 µM, a GI50 (DU-145 prostate) greater than 25 µM and a TGI (DU-145 prostate) greater than 25 µM. For the same compound, the GI50 (SNB-19 CNS) was greater than 25 µM, the TGI (SNB-19 CNS) was greater than 25 µM and the GI50 (M14 melanoma) was 13.7 µM. For the same compound, the TGI (M14 melanoma) was greater than 25 µM, the GI50 (OVCAR-5 ovarian) was 8.3 µM and the TGI (OVCAR-5 ovarian) was greater than 25 µM. The GI50 (OVCAR-8 ovarian) was greater than 25 µM, the TGI (OVCAR-8 ovarian) was greater than 25 µM and the GI50 (NCI-H522 lung) was greater than 20.3 µM. For the same compound, the TGI (NCI-H522 lung) was greater than 25 µM, the GI50 (LOX IMVI melanoma) was 13.7 µM and the TGI (LOX IMVI melanoma) was greater than 25 µM. For the same compound, the GI50 (SW-620 colon) was greater than 25 µM, the TGI (SW-620 colon) was greater than 25 µM and the GI50 (NCI-H226 lung) was greater than 25 µM. It also gave a TGI (NCI-H226 lung) greater than 25 µM, a GI50 (HOP-62 NSCLC) greater than 25 µM and a TGI (HOP-62 NSCLC) greater than 25 µM. The GI50 (OVCAR-4 ovarian) was greater than 25 µM, the TGI (OVCAR-4 ovarian) was greater than 25 µM and the GI50 (UACC-257 melanoma) was greater than 14.5 µM. For the same compound, the TGI (UACC-257 melanoma) was greater than 25 µM, the GI50 (UACC-62 melanoma) was 16.3 µM and the TGI (UACC-62 melanoma) was greater than 25 µM. The GI50 (SF-295 CNS) was greater than 25 µM, the TGI (SF-295 CNS) was greater than 25 µM and the GI50 (KM12 colon) was greater than 25 µM. The TGI (KM12 colon) was greater than 25 µM, the GI50 (HT29 colon) was 19.9 µM and the TGI (HT29 colon) was greater than 25 µM. The GI50 (NCI-H460 lung) was 12.6 µM, the TGI (NCI-H460 lung) was greater than 25 µM and the GI50 (A549 NSCLC) was greater than 23.1 µM. It also gave a TGI (A549 NSCLC) greater than 25 µM, a GI50 (NCI-H23 lung) greater than 25 µM and a TGI (NCI-H23 lung) greater than 25 µM. It also gave a GI50 (MALME-3M melanoma) of 7.11 µM, a TGI (MALME-3M melanoma) greater than 20.7 µM and a GI50 (K-562 leukemia) greater than 25 µM. For the same compound, the TGI (K-562 leukemia) was greater than 25 µM, the GI50 (MOLT-4 leukemia) was greater than 25 µM and the TGI (MOLT-4 leukemia) was greater than 25 µM. It also gave a GI50 (TK-10 renal) of 6 µM, a TGI (TK-10 renal) greater than 25 µM and a GI50 (HS 578T breast) of 1.96 µM. For the same compound, the TGI (HS 578T breast) was greater than 18.7 µM, the GI50 (NCI/ADR-RES ovarian) was greater than 25 µM and the TGI (NCI/ADR-RES ovarian) was greater than 25 µM. The GI50 (MCF7 breast) was 2.02 µM, the TGI (MCF7 breast) was greater than 25 µM and the GI50 (PC-3 prostate) was 17.9 µM. The TGI (PC-3 prostate) was greater than 25 µM, the GI50 (RPMI-8226 leukemia) was greater than 25 µM and the TGI (RPMI-8226 leukemia) was greater than 25 µM.
